Results: patent US8188077B2, “Apoptosis-inducing agents for the treatment of cancer and immune and autoimmune diseases” (Abbott Laboratories, priority 2010, dated 2012)

Molecular target: T1, Bcl-2 protein (Homo sapiens, UniProt P10415, DELINS35-91DVEENRTEAPEGTESE, form not given)
T1 construct: fused on or other part: Bcl-xL (Q07817) residues 29-44 stand in place of Bcl-2's own unstructured loop 35-91; The C-terminal membrane anchor (208-239) is absent
Assay: Bcl-2 fluorescence polarization assay (FPA) binding
Details: 10 nM Bcl-2 protein, 1 nM fluorescein-labeled BAX peptide, room temperature, read-out: Bcl-2 FPA 11pt Ki
Outline: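 Competitive fluorescence polarization with 10 nM Bcl-2 protein and 1 nM fluorescein-labeled BAX peptide in 20 mM phosphate pH 7.4, 1 mM EDTA, 0.05% PF-68. Compound dilutions in DMSO spanned […] to 10 pM; mix shaken 2 min, polarization read at room temperature (ex 485/em 530 nm); Ki values calculated.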

T1 sequence (P10415 with tags, fused parts or gaps with the stated changes): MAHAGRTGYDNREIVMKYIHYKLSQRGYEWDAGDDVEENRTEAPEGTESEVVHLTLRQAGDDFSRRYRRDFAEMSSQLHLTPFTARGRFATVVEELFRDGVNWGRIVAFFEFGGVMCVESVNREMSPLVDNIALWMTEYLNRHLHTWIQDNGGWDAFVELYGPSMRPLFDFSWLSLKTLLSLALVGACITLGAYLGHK

SMILES | Ki [nM]
O=C(NS(=O)(=O)c1ccc(NC2CCOCC2)c([N+](=O)[O-])c1)c1ccc(N2CC3CC2CN3C(=O)C23CC4CC(CC(C4)C2)C3)cc1 (stereo not drawn) [Example 43, 4-{5-[adamantan-1-ylcarbonyl]-2,5-diazabicyclo[2.2.1]hept-2-yl}-N-{[3-nitro-4-(tetrahydro-2H-pyran-4-ylamino)phenyl]sulfonyl}benzamide] | > 6250
O=C(NS(=O)(=O)c1ccc(NCC2CCCCC2)c([N+](=O)[O-])c1)c1ccc(N2C[C@@H]3C[C@H]2CN3CC23CC4CC(CC(C4)C2)C3)cc1 [Example 11, 4-{(1S,4S)-5-[adamantan-1-ylmethyl]-2,5-diazabicyclo[2.2.1]hept-2-yl}-N-({4-[(cyclohexylmethyl)amino]-3-nitrophenyl}sulfonyl)benzamide] | 1300
CC1(C)[C@H]2CC=C(c3ccccc3CN3CCN(c4ccc(C(=O)NS(=O)(=O)c5ccc(NCC6CCOCC6)c([N+](=O)[O-])c5)cc4)CC3)[C@@H]1C2 [Example 27, 4-(4-{2-[(1R,5S)-6,6-dimethylbicyclo[3.1.1]hept-2-en-2-yl]benzyl}piperazin-1-yl)-N-({3-nitro-4-[(tetrahydro-2H-pyran-4-ylmethyl)amino]phenyl}sulfonyl)benzamide] | 27.1
O=C(NS(=O)(=O)c1ccc(NCC2CCCCC2)c([N+](=O)[O-])c1)c1ccc(N2CCN(C34CC5CC(CC(C5)C3)C4)CC2)cc1 [Example 54, 4-{4-[adamantan-1-yl]piperazin-1-yl}-N-({4-[(cyclohexylmethyl)amino]-3-nitrophenyl}sulfonyl)benzamide] | > 9730

Further lines, results first:

Ki [nM] | SMILES
5600 | C[C@@H]1[C@@H](NC2CCC(C)(C)CC2CN2CCN(c3ccc(C(=O)NS(=O)(=O)c4ccc(NCC5CCOCC5)c([N+](=O)[O-])c4)cc3)CC2)C[C@@H]2C[C@H]1C2(C)C (stereo partly drawn) [Example 21, 4-{4-[(5,5-dimethyl-2-{[(1R,2S,3S,5S)-2,6,6-trimethylbicyclo[3.1.1]hept-3-yl]amino}cyclohexyl)methyl]piperazin-1-yl}-N-({3-nitro-4-[(tetrahydro-2H-pyran-4-ylmethyl)amino]phenyl}sulfonyl)benzamide]
845 | C[C@@H]1[C@@H](N2CCN(c3ccc(C(=O)NS(=O)(=O)c4ccc(NCC5CCCCC5)c([N+](=O)[O-])c4)cc3)CC2)C[C@H]2C[C@@H]1C2(C)C [Example 53, N-({4-[(cyclohexylmethyl)amino]-3-nitrophenyl}sulfonyl)-4-{4-[(1S,2S,3S,5R)-2,6,6-trimethylbicyclo[3.1.1]hept-3-yl]piperazin-1-yl}benzamide]
